The values below come from article PMC1069517 (Nucleic Acids Research, 2005).

One series addresses T1, a/eIF2 α–γ dimer (Saccharolobus solfataricus, UniProt Q980A5).
T1 sequence (Q980A5 1-415): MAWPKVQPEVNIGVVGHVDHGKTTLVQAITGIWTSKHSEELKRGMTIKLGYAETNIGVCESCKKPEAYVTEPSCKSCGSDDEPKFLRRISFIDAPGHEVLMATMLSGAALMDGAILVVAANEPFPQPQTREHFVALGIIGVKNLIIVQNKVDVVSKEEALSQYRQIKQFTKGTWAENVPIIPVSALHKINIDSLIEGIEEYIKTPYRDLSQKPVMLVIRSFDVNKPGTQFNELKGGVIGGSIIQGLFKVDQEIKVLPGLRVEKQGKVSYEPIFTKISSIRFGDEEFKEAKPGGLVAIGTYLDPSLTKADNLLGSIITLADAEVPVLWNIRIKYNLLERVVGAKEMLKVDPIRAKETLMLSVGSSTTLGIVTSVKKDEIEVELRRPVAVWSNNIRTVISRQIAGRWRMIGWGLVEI
T1 sequence (Q97Z79 1-266 partner): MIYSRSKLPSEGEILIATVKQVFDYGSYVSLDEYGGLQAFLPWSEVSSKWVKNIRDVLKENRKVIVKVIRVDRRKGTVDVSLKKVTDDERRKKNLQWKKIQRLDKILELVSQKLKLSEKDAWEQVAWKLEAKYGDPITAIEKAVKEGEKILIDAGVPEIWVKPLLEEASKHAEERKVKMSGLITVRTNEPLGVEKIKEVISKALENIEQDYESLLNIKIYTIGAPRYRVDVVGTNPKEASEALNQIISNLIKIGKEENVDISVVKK
Put plainly: nitrocellulose filter binding. As to conditions: 65 °C, 30 mM KCl, 50 mM HEPES pH 7.5, 0.5 mM MgCl2, 1 mM DTT; labelled compound.

A further series addresses T2, a/eIF2 β–γ dimer (Saccharolobus solfataricus, UniProt Q980A5).
T2 sequence (Q980A5 1-415): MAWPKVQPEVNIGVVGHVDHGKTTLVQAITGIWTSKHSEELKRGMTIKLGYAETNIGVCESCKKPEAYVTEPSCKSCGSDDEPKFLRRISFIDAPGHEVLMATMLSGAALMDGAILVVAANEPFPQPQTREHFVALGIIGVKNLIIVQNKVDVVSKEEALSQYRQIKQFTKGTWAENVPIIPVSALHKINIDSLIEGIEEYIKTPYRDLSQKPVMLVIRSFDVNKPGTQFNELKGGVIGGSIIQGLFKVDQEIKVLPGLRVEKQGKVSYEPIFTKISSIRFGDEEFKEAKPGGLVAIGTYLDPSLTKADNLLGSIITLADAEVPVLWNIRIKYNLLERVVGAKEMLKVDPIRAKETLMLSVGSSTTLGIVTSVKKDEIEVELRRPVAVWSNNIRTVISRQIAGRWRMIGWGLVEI
T2 sequence (Q97W59 1-139 partner): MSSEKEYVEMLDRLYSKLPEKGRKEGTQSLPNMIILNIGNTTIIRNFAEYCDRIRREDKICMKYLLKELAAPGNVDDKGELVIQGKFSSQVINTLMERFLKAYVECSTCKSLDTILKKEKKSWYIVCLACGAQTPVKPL
Put plainly: nitrocellulose filter binding. To be noted: 65 °C, 30 mM KCl, 50 mM HEPES pH 7.5, 0.5 mM MgCl2, 1 mM DTT; labelled compound.

Series [1] has as its target T3, a/eIF2 alpha subunit;a/eIF2 beta subunit;a/eIF2 gamma subunit (Saccharolobus (Sulfolobus) …, UniProt Q97Z79;Q97W59;Q980A5 1-266;1-139;1-415, ||).
T3 sequence 1: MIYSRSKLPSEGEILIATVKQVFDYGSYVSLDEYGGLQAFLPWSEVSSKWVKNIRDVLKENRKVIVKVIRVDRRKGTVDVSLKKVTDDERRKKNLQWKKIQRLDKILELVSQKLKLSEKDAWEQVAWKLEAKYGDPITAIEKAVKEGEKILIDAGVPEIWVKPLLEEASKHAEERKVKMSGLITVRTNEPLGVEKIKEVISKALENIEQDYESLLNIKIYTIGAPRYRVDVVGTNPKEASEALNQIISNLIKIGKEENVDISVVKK
T3 sequence 2: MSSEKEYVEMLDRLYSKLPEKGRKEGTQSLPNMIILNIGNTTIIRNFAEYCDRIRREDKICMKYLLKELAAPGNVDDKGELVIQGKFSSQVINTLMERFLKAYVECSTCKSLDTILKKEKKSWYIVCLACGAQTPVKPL
T3 sequence 3: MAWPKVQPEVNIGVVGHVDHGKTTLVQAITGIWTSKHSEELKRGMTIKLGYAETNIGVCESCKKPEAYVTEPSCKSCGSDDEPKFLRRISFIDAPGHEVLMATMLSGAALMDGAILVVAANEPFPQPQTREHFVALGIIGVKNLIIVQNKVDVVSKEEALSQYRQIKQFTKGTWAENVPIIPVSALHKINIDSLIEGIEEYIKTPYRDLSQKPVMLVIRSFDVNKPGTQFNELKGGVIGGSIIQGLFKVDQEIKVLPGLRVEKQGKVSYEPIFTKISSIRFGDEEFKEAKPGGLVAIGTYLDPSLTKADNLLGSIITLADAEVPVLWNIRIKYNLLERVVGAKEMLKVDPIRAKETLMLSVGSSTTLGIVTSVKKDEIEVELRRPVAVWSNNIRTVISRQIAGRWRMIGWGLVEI
Put plainly: filter binding.

Series [2] deals with T4, a/eIF2 alpha subunit;a/eIF2 gamma subunit (Saccharolobus (Sulfolobus) …, UniProt Q97Z79;Q980A5 1-266;1-415, |).
T4 sequence 1: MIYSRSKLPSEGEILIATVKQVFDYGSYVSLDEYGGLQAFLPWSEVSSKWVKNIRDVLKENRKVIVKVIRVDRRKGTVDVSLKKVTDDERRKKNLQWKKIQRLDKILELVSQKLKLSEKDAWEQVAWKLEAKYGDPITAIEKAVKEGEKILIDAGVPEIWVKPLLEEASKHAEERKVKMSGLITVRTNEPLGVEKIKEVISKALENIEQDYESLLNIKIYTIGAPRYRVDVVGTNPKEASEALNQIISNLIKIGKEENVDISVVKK
T4 sequence 2: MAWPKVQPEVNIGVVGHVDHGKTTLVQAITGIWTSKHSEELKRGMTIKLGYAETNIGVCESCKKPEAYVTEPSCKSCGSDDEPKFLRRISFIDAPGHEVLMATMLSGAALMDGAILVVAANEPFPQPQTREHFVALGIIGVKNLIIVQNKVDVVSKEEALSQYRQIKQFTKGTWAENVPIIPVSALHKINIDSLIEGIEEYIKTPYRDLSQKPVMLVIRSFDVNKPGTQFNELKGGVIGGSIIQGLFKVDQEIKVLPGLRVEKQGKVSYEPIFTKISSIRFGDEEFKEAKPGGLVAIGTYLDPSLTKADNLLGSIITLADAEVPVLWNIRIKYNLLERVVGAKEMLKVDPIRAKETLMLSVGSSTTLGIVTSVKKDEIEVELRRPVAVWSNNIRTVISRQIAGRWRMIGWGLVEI
Put plainly: filter binding.

For `Nc1nc2c(ncn2[C@@H]2O[C@H](COP(=O)(O)OP(=O)(O)O)[C@@H](O)[C@H]2O)c(=O)[nH]1` [GDP], the nitrocellulose filter binding result was “displayed GDP and GTP binding curves essentially overlapping with those obtained with the γ-subunit alone” at a/eIF2 α–γ dimer; “displayed GDP and GTP binding curves essentially overlapping with those obtained with the γ-subunit alone” on a/eIF2 β–γ dimer.

Take `Nc1nc2c(ncn2[C@@H]2O[C@H](COP(=O)(O)OP(=O)(O)OP(=O)(O)O)[C@@H](O)[C@H]2O)c(=O)[nH]1` [GTP]: the nitrocellulose filter binding result was “displayed GDP and GTP binding curves essentially overlapping with those obtained with the γ-subunit alone” at a/eIF2 α–γ dimer; “displayed GDP and GTP binding curves essentially overlapping with those obtained with the γ-subunit alone” on a/eIF2 β–γ dimer.

B1: [35S]Met-tRNAi (structured_RNA)
RNA: AGCGGGGUGGGCUAGCCUGGUAAGGCCGCGGGGCUCAUAACCCCGAGGUCCCUGGUUCAAAUCCAGGCCCCGCUACCA
modifications: 3' aminoacylated with methionine; no base modifications (in vitro transcript)
On to B1, for which the binding result in series [1] and in series [2] was “binds” each time.
